In the supplement of paper PMC11061612:

How the values were obtained:
SG3199 = compound: CC1=CN2[C@@H](C1)C=NC3=CC(=C(C=C3C2=O)OC)OCCCCCOC4=C(C=C5C(=C4)N=C[C@@H]6CC(=CN6C5=O)C)OC [SG3199]; conditions: max 0.001 µM
Summary of the method: (§1)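 Following 24 hours at 37°C and 5% CO2, cancer cell lines in 1536-well plates with 7.5 μl DMEM/F12 or RPMI and 10% FBS were dosed for 72 hours, final DMSO typically being 0.2%. CellTiter-Glo 2.0 luminescence, scaled between blank-well and DMSO-well means, gave the viability readout. Dose responses were fitted to a two-parameter logistic curve with a non-linear mixed effects model, and the single-agent IC50 was derived from this fit.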

AZD1390 = compound: CC(C)n1c(=O)n(C)c2cnc3cc(F)c(-c4ccc(OCCCN5CCCCC5)nc4)cc3c21 [AZD1390]; conditions: max 0.3 µM
Summary of the method: as §1

Doxorubicin = compound: COc1cccc2c1C(=O)c1c(O)c3c(c(O)c1C2=O)C[C@@](O)(C(=O)CO)C[C@@H]3O[C@H]1C[C@H](N)[C@H](O)[C@H](C)O1 [Doxorubicin]; conditions: max 1 µM
Summary of the method: as §1

AZD7648 = compound: Cc1cc2ncnn2cc1Nc1ncc2c(n1)n(C1CCOCC1)c(=O)n2C [AZD7648]; conditions: max 10 µM
Summary of the method: as §1

Dasatinib = compound: CC1=C(C(=CC=C1)Cl)NC(=O)C2=CN=C(S2)NC3=CC(=NC(=N3)C)N4CCN(CC4)CCO [Dasatinib]; conditions: max 2 µM
Summary of the method: as §1

Olaparib = compound: O=C(c1cc(Cc2n[nH]c(=O)c3ccccc23)ccc1F)N1CCN(C(=O)C2CC2)CC1 [Olaparib]; conditions: max 10 µM
Summary of the method: as §1

AZD5991 = compound: Cc1c2c(nn1C)CSCc1cc(n(C)n1)CSc1cc(c3ccccc3c1)OCCCc1c(C(=O)O)n(C)c3c-2c(Cl)ccc13 [AZD5991]; conditions: max 1 µM
Summary of the method: as §1

AZD0156 = compound: CN(C)CCCOc1ccc(-c2ccc3ncc4c(c3c2)n(C2CCOCC2)c(=O)n4C)cn1 [AZD0156]; conditions: max 3 µM
Summary of the method: as §1

AZD1775 = compound: C=CCn1c(=O)c2cnc(Nc3ccc(N4CCN(C)CC4)cc3)nc2n1-c1cccc(C(C)(C)O)n1 [AZD1775]; conditions: max 3 µM
Summary of the method: as §1

Alisertib = compound: COc1cc(Nc2ncc3c(n2)-c2ccc(Cl)cc2C(c2c(F)cccc2OC)=NC3)ccc1C(=O)O [Alisertib]; conditions: max 10 µM
Summary of the method: as §1

Gefitinib = compound: COc1cc2ncnc(Nc3ccc(F)c(Cl)c3)c2cc1OCCCN1CCOCC1 [Gefitinib]; conditions: max 10 µM
Summary of the method: as §1

Crizotinib = compound: C[C@@H](Oc1cc(-c2cnn(C3CCNCC3)c2)cnc1N)c1c(Cl)ccc(F)c1Cl [Crizotinib]; conditions: max 10 µM
Summary of the method: as §1

SN-38 = compound: CCc1c2c(nc3ccc(O)cc13)-c1cc3c(c(=O)n1C2)COC(=O)[C@]3(O)CC [SN-38]; conditions: max 0.3 µM
Summary of the method: as §1

AZD6738 = compound: C[C@@H]1COCCN1C2=NC(=NC(=C2)C3(CC3)[S@](=N)(=O)C)C4=C5C=CNC5=NC=C4 [AZD6738]; conditions: max 10 µM
Summary of the method: as §1

Lapatinib = compound: CS(=O)(=O)CCNCc1ccc(-c2ccc3ncnc(Nc4ccc(OCc5cccc(F)c5)c(Cl)c4)c3c2)o1 [Lapatinib]; conditions: max 10 µM
Summary of the method: as §1

Selumetinib = compound: Cn1cnc2c(F)c(Nc3ccc(Br)cc3Cl)c(C(=O)NOCCO)cc21 [Selumetinib]; conditions: max 10 µM
Summary of the method: as §1

Prexasertib = compound: COc1cccc(OCCCN)c1-c1cc(Nc2cnc(C#N)cn2)n[nH]1 [Prexasertib]; conditions: max 1 µM
Summary of the method: as §1

AZD4320 = compound: CN(CC[C@H](CSC1=CC=CC=C1)NC2=C(C=C(C=C2)S(=O)(=O)NC(=O)C3=CC=C(C=C3)N4CCC(CC4)[C@H](C5=CC=CC=C5C6=CC=C(C=C6)Cl)O)S(=O)(=O)C(F)(F)F)CCO [AZD4320]; conditions: max 1 µM
Summary of the method: as §1

Savolitinib = compound: C[C@@H](c1ccc2nccn2c1)n1nnc2ncc(-c3cnn(C)c3)nc21 [Savolitinib]; conditions: max 1 µM
Summary of the method: as §1

AZD2811 = compound: CCN(CCO)CCCOc1ccc2c(Nc3cc(CC(=O)Nc4cccc(F)c4)[nH]n3)ncnc2c1 [AZD2811]; conditions: max 1 µM
Summary of the method: as §1

Capivasertib = compound: C1CN(CCC1(C(=O)N[C@@H](CCO)C2=CC=C(C=C2)Cl)N)C3=NC=NC4=C3C=CN4 [Capivasertib]; conditions: max 10 µM
Summary of the method: as §1

Venetoclax = compound: CC1(C)CCC(CN2CCN(c3ccc(C(=O)NS(=O)(=O)c4ccc(NCC5CCOCC5)c([N+](=O)[O-])c4)c(Oc4cnc5[nH]ccc5c4)c3)CC2)=C(c2ccc(Cl)cc2)C1 [Venetoclax]; conditions: max 1 µM
Summary of the method: as §1

Palbociclib = compound: CC(=O)c1c(C)c2cnc(Nc3ccc(N4CCNCC4)cn3)nc2n(C2CCCC2)c1=O [Palbociclib]; conditions: max 10 µM
Summary of the method: as §1

Taselisib = compound: Cc1nc(-c2cn3c(n2)-c2ccc(-c4cnn(C(C)(C)C(N)=O)c4)cc2OCC3)n(C(C)C)n1 [Taselisib]; conditions: max 10 µM
Summary of the method: as §1

Trametinib = compound: CC(=O)Nc1cccc(-n2c(=O)n(C3CC3)c(=O)c3c(Nc4ccc(I)cc4F)n(C)c(=O)c(C)c32)c1 [Trametinib]; conditions: max 1 µM
Summary of the method: as §1

AZD5153 = compound: COc1nnc2ccc(N3CCC(c4ccc(OCCN5CCN(C)C(=O)[C@H]5C)cc4)CC3)nn12 [AZD5153]; conditions: max 1 µM
Summary of the method: as §1

AZD8186 = compound: C[C@@H](Nc1cc(F)cc(F)c1)c1cc(C(=O)N(C)C)cc2c(=O)cc(N3CCOCC3)oc12 [AZD8186]; conditions: max 3 µM
Summary of the method: as §1

Cell Line	IC50, cell viability 72 h (SG3199) [nM]	IC50, cell viability 72 h (AZD1390) [nM]	IC50, cell viability 72 h (Doxorubicin) [nM]	IC50, cell viability 72 h (AZD7648) [nM]	IC50, cell viability 72 h (Dasatinib) [nM]	IC50, cell viability 72 h (Olaparib) [nM]	IC50, cell viability 72 h (AZD5991) [nM]	IC50, cell viability 72 h (AZD0156) [nM]	IC50, cell viability 72 h (AZD1775) [nM]	IC50, cell viability 72 h (Alisertib) [nM]	IC50, cell viability 72 h (Gefitinib) [nM]	IC50, cell viability 72 h (Crizotinib) [nM]	IC50, cell viability 72 h (SN-38) [nM]	IC50, cell viability 72 h (AZD6738) [nM]	IC50, cell viability 72 h (Lapatinib) [nM]	IC50, cell viability 72 h (Selumetinib) [nM]	IC50, cell viability 72 h (Prexasertib) [nM]	IC50, cell viability 72 h (AZD4320) [nM]	IC50, cell viability 72 h (Savolitinib) [nM]	IC50, cell viability 72 h (AZD2811) [nM]	IC50, cell viability 72 h (Capivasertib) [nM]	IC50, cell viability 72 h (Venetoclax) [nM]	IC50, cell viability 72 h (Palbociclib) [nM]	IC50, cell viability 72 h (Taselisib) [nM]	IC50, cell viability 72 h (Trametinib) [nM]	IC50, cell viability 72 h (AZD5153) [nM]	IC50, cell viability 72 h (AZD8186) [nM]
5637 (Bladder Carcinoma)	> 1	> 300	> 1000	> 10000	260	> 10000	> 1000	> 3000	385	1010	> 10000	> 10000	37.9	6460	7560	> 10000	53.2	> 1000	> 1000	251	> 10000	> 1000	> 10000	8900	> 1000	900	> 3000
A204 (Rhabdomyosarcoma)	> 1	> 300	528	> 10000	1390	> 10000	> 1000	> 3000	> 3000	> 10000	> 10000	> 10000	132	> 10000	> 10000	> 10000	362	> 1000	> 1000	> 1000	> 10000	> 1000	> 10000	4320	> 1000	> 1000	> 3000
A253 (Head and Neck Carcinoma)	> 1	> 300	177	> 10000	> 2000	> 10000	447	> 3000	1130	> 10000	> 10000	> 10000	18.7	4570	> 10000	> 10000	110	> 1000	> 1000	> 1000	4080	> 1000	> 10000	6730	746	> 1000	> 3000
AU565 (Breast Carcinoma)	> 1	> 300	634	> 10000	> 2000	> 10000	68.3	> 3000	435	9280	2740	> 10000	14.5	> 10000	358	> 10000	133	> 1000	> 1000	> 1000	7950	> 1000	> 10000	3150	> 1000	> 1000	> 3000
CA46 (Burkitt's Lymphoma)	> 1	> 300	> 1000	> 10000	> 2000	> 10000	> 1000	> 3000	579	> 10000	> 10000	> 10000	135	> 10000	> 10000	> 10000	142	> 1000	> 1000	> 1000	> 10000	> 1000	> 10000	> 10000	> 1000	232	> 3000
CAL-27 (Oral Cavity Carcinoma)	> 1	> 300	927	> 10000	431	> 10000	413	> 3000	1850	443	839	> 10000	13.6	> 10000	933	1890	894	> 1000	> 1000	608	> 10000	> 1000	> 10000	854	129	426	> 3000
CESS (Acute Myeloid Leukemia)	> 1	> 300	237	> 10000	1400	> 10000	> 1000	> 3000	353	107	> 10000	4010	6.15	2080	> 10000	> 10000	12.2	> 1000	> 1000	> 1000	4120	> 1000	8030	7400	> 1000	297	2140
COLO-792 (Melanoma)	> 1	> 300	> 1000	> 10000	> 2000	> 10000	238	> 3000	2290	> 10000	> 10000	5380	> 300	> 10000	> 10000	5940	> 1000	788	> 1000	> 1000	> 10000	> 1000	> 10000	1690	110	512	> 3000
